The text below walks through data of PMC10877577 (ACS Chemical Biology, 2024).

Data set [1] has as its system GWARA-flexi-IL12 secretion from transduced PBMCs. Nature of the data set: IL12 secretion assay (KDEL retention system). The class given is cell-based, human. The note with it: minocycline up to 2.5 μM. As for the experimental part:
(§1) IFN-γ, IL2, and IL12 secretion was measured by collecting the supernatant from the respective cell-based assay and frozen at −20 °C prior to analysis by ELISA. IFN-γ, IL2, and IL12 ELISAs were carried out using the Human IFN-γ ELISA MAX Deluxe kit, Human IL2 ELISA MAX Deluxe kit, and Human IL12 (p70) ELISA MAX Deluxe kit in accordance with the manufacturer’s instructions (BioLegend).
Transduced PBMCs were stained for the independent HA expression marker by using an anti-HA-PE antibody to determine transduction efficiency. Cells were normalized to 60% using nontransduced T cells prior to assay set up. For the assay set up, 0.5 × 10^4 transduced cells were cultured in RPMI (RPMI-1640) supplemented with 10% fetal bovine serum (FBS), 2 mM GlutaMAX, and IL2 at a concentration of 100 UI/mL. […] IL12 ELISA was carried out following manufacturer’s instructions (BioLegend, 431704).

A further data set relates to Nalm6 EGFR+ tumor. Nature of the data set: Xenograft model with NALM6, BLI readout. The data set is classed as in vivo, NSG mice. The note with it: minocycline hydrochloride 0.4 mg i.p. every 2–3 days; day 7 to 13 post CAR-T. As for the experimental part:
All animal studies were carried out in accordance with a UK Home Office-approved project license and were approved by the UCL Biological Services Ethical Review Committee. NSG mice (female, aged 6–10 weeks) were acquired from Charles River Laboratories and raised under pathogen-free conditions. On day 4, 0.5 × 10^6 Nalm6 cells engineered to express EGFR and HA-luciferase were injected intravenously into NSG mice. Tumor engraftment was assessed through bioluminescence imaging, employing the IVIS Spectrum system (PerkinElmer) following intraperitoneal injection of 2 mg D-luciferin. Photon emission from EGFR^+ NALM6-FLuc cells, expressed in photon per second per cm^2 per steradian, was quantified using Living Image software (PerkinElmer). On day 0, mice were randomly assigned to different cohorts prior to intravenous injection of 1 × 10^6 CAR T cells. The experiment was conducted without blinding; however, the use of bioluminescence imaging provides an objective assessment of tumor growth in this model. […] Intraperitoneal injection of 100 μL (0.4 mg) was administered every 2–3 days.

For data set [2], the system named is SupT1 GWARA-CD8stk-CD28TM and SupT1 aMinoC1-CD8stk-CD28TM cells. Description: Cell–cell binding assay (aggregate formation). The class given is cell-based, human. The note with it: 10 μM minocycline, 24 h time course. As to the method:
SupT1 cells were transduced to express GWARA-CD8a spacer-CD28TM-2A-mCherry and aMinoC1 sdAb-CD8 spacer-CD28TM-2A-eGFP. 0.5 × 10^4 cells were cocultured in RPMI (RPMI-1640) supplemented with 10% fetal bovine serum (FBS) and 2 mM GlutaMAX. […] Images were captured using an IncuCyte real-time imager. Time-course images were analyzed using ImageJ (NIH v1.53t) using an image analyzer (20 px^2-infinite size, 0.0–1.0 circularity).

For data set [3], the system named is HEK-293T transduced with the aMinoC1 transmembrane receptor. Description: Flow cytometry of peptide-muIgG2a Fc binding to cells with aMinoC1 transmembrane receptor. The class given is cell-based, human. The note with it: GWARA, HWAQA, PWAYS, QWAMM, increasing minocycline, caffeine 100 μM. As for the experimental part: Flow cytometry was performed using the MACSQuant Analyzer 10 or MACSQuant X (Miltenyi Biotec). All flow cytometry data was analyzed using FlowJo v.7.6.2 software (Tree Star Inc., Ashland, OR). Cell staining was carried out by incubation with PBS containing the recommended concentration of antibodies at RT for 30 min. PBS washes were carried out between antibody staining. Cell viability was determined using viability dye SYTOX Blue Dead Cell Stain (ThermoFisher) prior to flow cytometric analysis. Cells were first gated for singlet population identified by FSC-H and FSC-A. Next, live cells were identified using a viability dye, followed by gating for target cell populations. The antibodies used in the study are as follows: CD3 PECy7 (Biolegend, 317334), Human CD34 APC-conjugated antibody (R&D system, FAB7227A), Human CD34 Alexa Fluor 488-conjugated antibody (R&D system, FAB7227G), Streptavidin PE (Biolegend, 405204), APC antihuman EGFR antibody (Biolegend, 352905), Alexa Fluor 488 antihuman EGFR antibody (Biolegend, 352907), PE anti-HA.11 Epitope Tag antibody (Biolegend, 901517), Anti-M13-HRP (Sino Biologics, 1197 mm05T-H), Anti-Myc-HRP (Genscript, A00863), and SYTOX Blue Dead Cell Stain (ThermoFisher, S10274).
In general terms: In flow cytometry, cells or beads pass a laser one at a time.

The subject of data set [4] is MinoUniCAR-transduced PBMCs. Description: MinoUniCAR IFN-γ release with EGFR-peptide adaptor. The class given is cell-based, human. The note with it: 10 vs 0 μM minocycline. As for the experimental part: as §1
Transduced PBMCs were stained using RQR8 expression and V5 markers. Cells were then normalized to 50% efficiency by diluting with nontransduced T cells. The tumor-targeting adaptor protein (EGFR sdAb) fused to the GWARA peptide was separately expressed by CHO cell transient transfection and purified by His-tag chromatography. […] IFN-γ secretion was measured as described above.

For data set [5] the following is noted: in vivo; cited from earlier work.
Data set [6] relates to MinoCAR-transduced PBMC against SupT1-EGFR+ target cells. The class given is cell-based. The note with it: compared to 0 μM minocycline. As for the experimental part: Transduced CAR T cells were determined by staining for the transduction marker RQR8 and normalized by the addition of nontransduced T cells. Effector cells were cocultured with 5.0 × 10^4 number of target cells (SupT1-NT, SupT1-EGFR+, SKOV3-mKate) to achieve the desired effector cell to target ratio. […] Cocultures were incubated for 24–72 h at 37 °C and 5% CO2. After incubation, plates were centrifuged at 400g for 5 min, and the supernatant containing secreted cytokines was collected for cytokine analysis. Cells were stained with anti-hCD34-APC and anti-CD3-PeCy7 to differentiate effector T cells and target cells. Cells were washed with 300 μL o PBS and stained with SYTOX Blue Dead Cell Stain dye. The percentage of target cell survival was measured relative to the number of live target cells cocultured with nonspecific CAR T cells or nontransduced PBMCs.

In a further data set the test system is aMinoC1 sdAb. Nature of the data set: ELISA of CX7C-muIgG2a-Fc peptide fusions on aMinoC1 with or without minocycline. The class given is binding, alpaca. The note with it: 1 μM minocycline. On the technique in general: In an ELISA, binding on a coated surface is turned into a signal by an enzyme label.

SMILES strings stand for the structures. Entries after “also recorded” stand apart in the source; their conditions may differ. Where two headings read alike, the source gives them in different places.

Turning to `CN(C)c1ccc(O)c2c1C[C@H]1C[C@H]3[C@H](N(C)C)C(O)=C(C(N)=O)C(=O)[C@@]3(O)C(O)=C1C2=O` [minocycline], the IL12 release result in data set [1] (day 2, aMinoC1-KDEL construct) was “up to 150 pg/mL”; in data set [1] (day 7, aMinoC1-KDEL construct) it was not above 2.2 µg/mL. In addition, the “effect of minocycline on MinoCAR efficacy (BLI)” value in the data set with Nalm6 EGFR+ tumor is recorded as “Significant inhibition of MinoCAR; also recorded: significantly reduced MinoCAR efficacy”. Moreover, the cell aggregate formation result in data set [2] is “random distribution of cells without a clear spatial organization”. Further, the “peptide-muIgG2a Fc binding to membrane-bound aMinoC1 in presence of small molecule” value was “Dose-dependent reduction of peptide-muIgG2a Fc binding” in data set [3] and “concentration-dependent reduction in peptide binding” in data set [3] (listed as Minocycline). The “cytokine (IFN-γ) reduction” value in data set [4] was determined as 10 fold. The “blood–brain barrier crossing” value in data set [5] was “can cross the blood–brain barrier”. In addition, the half-life in blood in data set [5] is 12 to 24 h. Also, the “time of serum concentration peak” value in data set [5] was 2 to 3 h. Further, the “increase in target cell survival” value in data set [6] (24 h) amounted to 2.5 fold; in data set [6] (72 h) it was 35 fold. Besides, in the data set on aMinoC1 sdAb, the “ELISA detection of peptide-Fc on aMinoC1 in presence of minocycline” value is listed as “out-competed peptide-Fc conjugates”.
